This passage reports TGI and GI50 results from PubChem BioAssay (NCI).

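Following 48 hours of exposure in 96-well plates, responses at five concentrations were used to interpolate endpoints linearly. Here, GI50 denotes the concentration required for 50% inhibition of growth. Definition used: TGI = concentration required for complete inhibition of growth.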 Bounds are passed on as bounds.

Some test systems named below: SNB-78 CNS; HCT-15 colon; DMS 273 small cell lung; SF-268 CNS; HCT-116 colon; HT29 colon; SNB-19 CNS; U251 CNS; RPMI-8226 leukemia; HOP-92 NSCLC; SF-539 CNS; MALME-3M melanoma; SN12K1 renal; SK-MEL-28 melanoma; NCI-H522 lung; EKVX NSCLC; SK-MEL-2 melanoma.
Holding throughout (assay): DTP human tumour cell line panel, 48 h

For orientation: TGI means the concentration at which net growth stops. A lower TGI goes with more potent growth arrest. For orientation: GI50 means the concentration that inhibits growth by half.

Take `[Cl-].[Rh+3].c1ccc(-c2ccnc3c2ccc2c(-c4ccccc4)ccnc23)cc1.c1ccc(-c2ccnc3c2ccc2c(-c4ccccc4)ccnc23)cc1.c1ccc(-c2ccnc3c2ccc2c(-c4ccccc4)ccnc23)cc1`: the TGI in the assay with SNB-78 CNS was above 100 µM; in the assay with HCT-15 colon, above 100 µM; in the assay with DMS 273 small cell lung, 83.1 µM; with SF-268 CNS it was above 100 µM; in the assay with HCT-116 colon, above 100 µM; in the assay on HT29 colon it was 73.7 µM. The TGI is above 100 µM in the assay with SNB-19 CNS; above 100 µM with U251 CNS; above 100 µM in the assay on RPMI-8226 leukemia; above 77.9 µM with HOP-92 NSCLC; above 76 µM in the assay with SF-539 CNS; 82.9 µM in the assay on MALME-3M melanoma. Also, the concentration for total growth inhibition (TGI) with SN12K1 renal is above 87.2 µM; with SK-MEL-28 melanoma, above 100 µM; with NCI-H522 lung it was above 85.1 µM; in the assay on EKVX NSCLC, above 91.7 µM; in the assay on SK-MEL-2 melanoma it was above 100 µM. Further, the GI50 in the assay on RPMI-8226 leukemia is 29.2 µM; in the assay on HOP-92 NSCLC it was 19 µM; in the assay with SN12K1 renal it was 29.7 µM.
